Like-named read-outs stand apart in the source and are kept apart here.
How the values were obtained:
[1] = system: phospho-ERK1/2 and LC3-II in A375 cells; assay: Western blot of A375 cells treated with PLX-4032 with and without autophagy inhibitors; assay type: cell-based, human; conditions: in combination with PLX-4032, FIG. 16C
Description: For Western blotting, U2OS cells were seeded in 10 cm plates in 5A McCoy's with 10% FBS at 1×10^6 cells per plate. All melanoma lines were seeded in 10 cm plates in RPMI 1640 with 10% FBS at 1×10^6 cells per plate. After 24 hours, cells were treated with CQ, QN, Example 27, or Example 7 in a dose response of 0.3 μM, 1 μM, 3 μM, 10 μM, and 30 μM for three hours. A375 were treated with PLX-4032 (Selleck Chemicals, S1267) at 10 nM, 100 nM, and 1 μM for three hours with and without CQ, QN, Example 7, and Example 27 at 3 μM and 30 μM. After treatment, cells were lysed [10 mM KPO4, 1 mM EDTA, 10 mM MgCl2, 5 mM EGTA, 50 mM bis-glycerophosphate, 0.5% NP40, 0.1% Brij35, 0.1% sodium deoxycholate, 1 mM NaVO4, 5 mM NaF, 2 mM DTT, and complete protease inhibitors (Sigma, P8340-5 mL)] and 50 μg of protein was resolved by SDS-PAGE. Proteins were transferred to PVDF membranes and probed with primary antibodies [LC3 (Sigma, L7543-200UL), anti-α-tubulin (Sigma, T6199), cathepsin B (Santa Cruz, sc-13985)] for 16 hours at 4° C. followed by a secondary antibody [HRP-linked rabbit or mouse IgG (GE Healthcare, NA934 or NA931) or Odyssey IRDye 680CW Goat anti-rabbit IgG (LI-COR, 926-32221) or IRDye 800CW Goat anti-mouse IgG (LI-COR, 926-32210)] for 1 hour at room temperature. Proteins were detected with enhanced chemiluminescence or using the Odyssey machine and quantified (FIGS. 12, 15, 16, 7 and 11).
Since the melanoma cell lines are capable of undergoing autophagy and sensitive to autophagy inhibition, the inventors questioned whether autophagy inhibitors could improve the efficacy of, or sensitize melanoma cells against cytotoxic and chemotherapeutic drugs for advanced metastatic melanoma. In one example, PLX-4032 drug “vemurafenib” (marketed as ZELBORAF®) is a B-Raf enzyme inhibitor developed by Plexxikon and Genentech for the treatment of late-stage melanoma. The name “vemurafenib” comes from V600E mutated BRAF inhibition. PLX-4032, selectively targets the V600E mutant BRAF and it is unknown how this drug may affect autophagic flux. To determine the effects of the drug on autophagic flux, the present inventors performed experiments to determine whether PLX-4032 induces autophagy, as has been observed with other targeted agents. In some embodiments, the accumulation of LC3-II in response to lysosome inhibition was measured by quantitative Western blotting, as described above. A375 cells were treated with PLX-4032 (10 nM, 100 nM, and 1 μM) for three hours in the presence or absence of CQ.

[2] = system: P. falciparum K1 (CQ resistant); assay: microbe, parasite or virus in culture; assay type: cell-based, Plasmodium falciparum; conditions: for antimalarial activity score: K1 strain; for IC50: Plasmodium falciparum, K1, Erythrocyte, read-out: Antimalarial activity (IC50) P. falciparum K1 (CQ resistant)
Description: In this example, compounds of Formula A, Formula A^1, Formula A^2, Formula A^3 or pharmaceutically acceptable salts thereof, are tested in Plasmodium sp infected cells to determine the effectiveness of these compounds to determine their anti-malarial activity. […] After 24 hours, plates were harvested with a Betaplate™ cell harvester (Wallac, Zurich Switzerland) which transferred the red blood cells onto a glass fiber filter and washed with distilled water. Dried filters were inserted into a plastic foil with 10 mL of scintillation fluid and counted in a Betaplate™ liquid scintillation counter (Wallac, Zurich Switzerland). Results were obtained as counts per minute (cpm) per well at each concentration.

[3] = system: endogenous LC3 in U2OS cells; assay: Western blot of endogenous LC3 (LC3-II accumulation) in U2OS; assay type: cell-based; conditions: dose response, three hours, FIG. 11A
Description: For Western blotting, U2OS cells were seeded in 10 cm plates in 5A McCoy's with 10% FBS at 1×10^6 cells per plate. […] After treatment, cells were lysed [10 mM KPO4, 1 mM EDTA, 10 mM MgCl2, 5 mM EGTA, 50 mM bis-glycerophosphate, 0.5% NP40, 0.1% Brij35, 0.1% sodium deoxycholate, 1 mM NaVO4, 5 mM NaF, 2 mM DTT, and complete protease inhibitors (Sigma, P8340-5 mL)] and 50 μg of protein was resolved by SDS-PAGE. […] Proteins were detected with enhanced chemiluminescence or using the Odyssey machine and quantified (FIGS. 12, 15, 16, 7 and 11).

[4] = system: P. falciparum NF54 (CQ sensitive); assay: In vitro P. falciparum asexual blood stage, [3H]-hypoxanthine, NF54; assay type: cell-based, Plasmodium falciparum; conditions: for antimalarial activity score: NF54 strain; for IC50: Plasmodium falciparum, NF54, Erythrocyte, read-out: Antimalarial activity (IC50) P. falciparum NF54 (CQ sensitive)
Description: In this example, compounds of Formula A, Formula A^1, Formula A^2, Formula A^3 or pharmaceutically acceptable salts thereof, are tested in Plasmodium sp infected cells to determine the effectiveness of these compounds to determine their anti-malarial activity. Exemplary compounds, Example 7 and Example 27 (See Table 1) were dissolved in DMSO at 10 mg/mL and 4× compound dilutions were prepared in screening medium [RPMI 1640 with no hypoxanthine, HEPES (5.94 μg/L), NaHCO3 (2.1 μg/L), Neomycin (100 μg/mL), and Albumax II (5 μg/L)]. Human red blood cells were prepared without and with stock cultures of P. falciparum strains, NF54 (Chloroquinine (CQ) sensitive) and K1 (CQ resistant), to a parasitemia of 0.3% and hematocrit of 2.5%. Using a 96-well plate, 100 μL/well of red blood solution was added along with a 2-fold serial dilution of Example 7 and Example 27. Plates were incubated at 37° C. with 93% N2, 4% CO2, and 3% O2 for 48 hours, after which 50 μL of [3H]-hypoxanthine (0.5 μCi) was added to each well. After 24 hours, plates were harvested with a Betaplate™ cell harvester (Wallac, Zurich Switzerland) which transferred the red blood cells onto a glass fiber filter and washed with distilled water. Dried filters were inserted into a plastic foil with 10 mL of scintillation fluid and counted in a Betaplate™ liquid scintillation counter (Wallac, Zurich Switzerland). Results were obtained as counts per minute (cpm) per well at each concentration.

| SMILES | LC3II accumulation [1] | antimalarial activity score [2] | IC50 [2] [nM] | accumulation of LC3-II [3] | antimalarial activity score [4] | IC50 ([4]; in vitro, infected human red blood cells) [nM] | IC50 [4] [nM] |
| --- | --- | --- | --- | --- | --- | --- | --- |
| COc1ccc2nc3cc(Cl)ccc3c(NCCCCN3CCN(C)CC3)c2c1 [Example 7, 6-Chloro-2-methoxy-N-(4-(4-methylpiperazin-1-yl)butyl)acridin-9-amine] | greater increases in LC3II accumulation | good activity (good activity: IC50<50 ng/mL) | 23 | increased accumulation of LC3-II | good activity (good activity: IC50<50 ng/mL) | 4 | – |
| CN1CCN(CCNc2c3c(nc4cc(Cl)ccc24)CCCC3)CC1 [Example 27, 6-Chloro-N-(2-(4-methylpiperazin-1-yl)ethyl)-1,2,3,4-tetrahydroacridin-9-amine] | greater increases in LC3II accumulation | low activity (low activity: IC50 50-1000 ng/mL) | 131 | increased accumulation of LC3-II | low activity (low activity: IC50 50-1000 ng/mL) | – | 323 |

From patent US20170000784A1, “Autophagy Inhibitors” (priority 2013, published 2017)
